Assay results reported in patent publication US9226495B2, “Disinfection aerosol, method of use and manufacture” (SABAN VENTURES PTY LIMITED, priority 2009, dated 2016).

How the values were obtained:
[1] = Hydrogen peroxide destruction in bulk solution in a tube, temperature rise as proxy; type: physicochemical; settings: antagonist concentrations of below 1×10^−4 M; 0.02M sodium hydroxide; FIG. 3
From the text: Screening was initially conducted using bulk solutions combined in a tube, rather than as aerosols.
During destruction of hydrogen peroxide by Mn(II) or permanganate in tubes the temperature of the solution rather often reached boiling point. This should not happen when the biocide is sprayed as a mist due to absolutely different heat exchange conditions in bulk solution and in a thin layer of biocide. […] By lead time is meant the lag or induction period before the reaction velocity increases steeply.

[2] = according OH&S requirements; of Mn; cited from earlier work

Structure (SMILES)	time to peak rate of reaction with 35% peroxide [1]	permissible exposure limit [2]
[K+].[O]=[Mn](=[O])(=[O])[O-] [KMnO4]	about 10 mins	–
[Mn] [Mn]	–	5 mg/m^3
